row,logP,Structure (SMILES)
1,4.33,O=C1c2c(O)cccc2Cc2ccc(C(CCc3ccccc3)C(=O)O)c(O)c21 (stereo not drawn)
2,4.63,COC(=O)CCCc1ccc2c(c1O)C(=O)c1c(O)cccc1C2
3,3.9,CC(C(=O)O)C(C)c1ccc2c(c1O)C(=O)c1c(O)cccc1C2 (stereo not drawn)
4,4.16,COC(=O)C(C)c1ccc2c(c1O)C(=O)c1c(O)cccc1C2 (stereo not drawn)
5,5.22,COC(=O)c1ccc(C(=O)c2ccc3c(c2O)C(=O)c2c(O)cccc2C3)cc1
6,3.93,COC(=O)Cc1ccc2c(c1O)C(=O)c1c(O)cccc1C2
7,4.77,COC(=O)C(C)C(C)c1ccc2c(c1O)C(=O)c1c(O)cccc1C2 (stereo not drawn)
8,3.91,O=C(O)CCCc1ccc2c(c1O)C(=O)c1c(O)cccc1C2
9,4.6,O=C(O)CCCCCc1ccc2c(c1O)C(=O)c1c(O)cccc1C2
10,3.78,O=C(O)CCc1ccc2c(c1O)C(=O)c1c(O)cccc1C2
11,4.55,COC(=O)CCc1ccc2c(c1O)C(=O)c1c(O)cccc1C2
12,5.34,COC(=O)CCCCCc1ccc2c(c1O)C(=O)c1c(O)cccc1C2
13,4.86,COC(=O)C(Cc1ccccc1)c1ccc2c(c1O)C(=O)c1c(O)cccc1C2 (stereo not drawn)
14,4.97,COC(=O)CCCCc1ccc2c(c1O)C(=O)c1c(O)cccc1C2
15,4.11,O=C1c2c(O)cccc2Cc2ccc(C(Cc3ccccc3)C(=O)O)c(O)c21 (stereo not drawn)
16,4.22,O=C(O)CCCCc1ccc2c(c1O)C(=O)c1c(O)cccc1C2
17,3.4,CC(C(=O)O)c1ccc2c(c1O)C(=O)c1c(O)cccc1C2 (stereo not drawn)
18,5.17,COC(=O)C(CCc1ccccc1)c1ccc2c(c1O)C(=O)c1c(O)cccc1C2 (stereo not drawn)

# — the SangsterLogP compilation
